Data: patent publication US9649313B2, “Use of ITK inhibitors for the treatment of cancer” (The University of North Carolina at Chapel Hill, priority 2012, dated 2017)

Key:
56 protein kinases = test: cell-free kinase selectivity panel; type: biochemical; conditions: versus 51 of the 56 protein kinases tested
Excerpt: To assess the effect of pharmacologic inhibition of ITK activity in melanoma preclinical models, we used BI 10N, which has been previously shown to inhibit ITK's phosphoryl-transfer activities (Kashem et al., 2007; Riether et al., 2009). We investigated the potency and selectivity of BI 10N against 56 kinases using a cell-free assay (Table 8A).

[1] = tested on: VMM 39 (ITKHI) melanoma cell line; test: proliferation assay (cell counts); type: cell-based, Human; conditions: 50 nM
Excerpt: (§1) FIG. 4A-4E. Effects of ITK knockdown on proliferation and motility of melanoma cells. FIG. 4A) Western of lysates of VMM 39 containing each of the four shRNA constructs using rabbit monoclonal anti ITK (Y401). FIG. 4B) The four shRNA lentiviral constructs were used to transduce three melanoma cell lines, PMWK (ITKLO), VMM 39 (ITKHI), and RPMI 8322 (ITKHI). 50,000 cells were placed into each well of a 6 well plate, which was then counted 3, 5, and 6, or 7 days after plating to assess the proliferation rates of the different cell lines. FIG. 4C) Single Cell Motility assays were performed on three different melanoma cell lines, PMWK, VMM 39, and RPMI 8322. Each melanoma cell line was transduced with the four shRNA lentiviral constructs producing a total of 12 cell lines. 10,000 cells were plated on fibronectin coated glass bottom dishes. Pictures were taken once every 40 minutes for 16 hours. FIG. 4D) Cell cycle analysis of PMWK, VMM 39, and RPMI 8322 cells that have been transduced with various shRNAs. Cells were harvested after 3 hours of incubation with 5-ethynyl-2′-deoxyuridine (EdU). EdU incorporation and DNA content with FxCycle Violet were analyzed using flow cytometry. Illustrated in this panel are the percentages of cells in G0/G1 (low DNA and EdU content), S (high EdU and low-to-medium DNA content), and G2/M (Low EdU and high DNA content). FIG. 4E) Single-cell motility analysis of PMWK, VMM 39, and RPMI 8322 that have been transduced with various shRNAs. At least 50 cells were tracked for each cell line and the average motility rate was determined. […]
(§2) FIG. 5A-5C. […] Cells were trypsinized and counted using the Invitrogen Countess. […] The cells were counted with the Invitrogen Countess at 3, 5, and 6 or 7 days after plating to assess the proliferation rates of the different cell lines in the presence of BI 10N. […] Following 3 days of BI 10N treatment, the cells were incubated with EdU for 3 hours and were subsequently assessed for 5-ethynyl-2′-deoxyuridine (EdU) incorporation rate and DNA content with FxCycle Violet. […]

[2] = tested on: PMWK (ITKLO) melanoma cell line; test: proliferation assay (cell counts); type: cell-based, Human; conditions: inhibitor as high as 150 nM
Excerpt: as §1, §2

[3] = tested on: RPMI 8322 (ITKHI) melanoma cell line; test: proliferation assay (cell counts); type: cell-based, Human; conditions: 50 nM
Excerpt: as §1, §2

[4] = tested on: RPMI 8322 (ITKHI) xenograft tumors; test: melanoma xenograft mouse model; type: in vivo, nude mice; conditions: RPMI 8322 xenograft; 15 mg per kg in food
Description: (§3) FIG. 6A-6F. Effects of BI 10N inhibitor on growth of melanoma xenografts in vivo. FIG. 6A-6C) Cell lines RPMI 8322 (ITKHI), VMM 39 (ITKHI), and A375 (ITKINT) were grown as described previously, suspended in matrigel and injected into the flanks of nude mice as described in the Materials and Methods section. The mice received either BI 10N at a concentration of 15 mpk or no treatment. Mice were then followed to assess the effect of the treatments on tumor progression. FIG. 6D-6F) Effect of BI 10N (15mpk) on tumor growth (mean and standard error of mean) in A375, RPMI 8322, and VMM 39 melanoma xenografts. […] Samples sizes are indicated in parentheses.
(§4) Nude athymic animals were acquired through the UNC Animal Studies Core and are similar to Jackson Labs (strain 000819). Mice were aged to 10 weeks and inoculated in the hind flank with 500K cells suspended in a 50/50 solution of Hank's Solution plus 2% FBS and matrigel (BD cat#356234). Once weekly caliper measurements of the length and width of the tumors were recorded; volume was then calculated using the formula ((L^2)×W)/2. Treatment began when a tumor reached an approximate size of 60 mm^3. Mice received compounds orally via admixture with standard rodent diet (Research Diets, Inc; New Brunswick, N.J.) or the same diet for non-treated mice as per MP1U (mouse phase I unit) protocol (Roberts et al., 2012 Clin Cancer Res 18(19):5290-5303). Tissues were cut in half and either flash frozen and then stored at −80 or formalin-fixed/paraffin embedded.

[5] = tested on: VMM 39 (ITKHI) xenograft tumors; test: melanoma xenograft mouse model; type: in vivo, nude mice; conditions: VMM 39 xenograft; 15 mg per kg in food
Description: as §3, §4

[6] = tested on: A375 (ITKINT) xenograft tumors; test: melanoma xenograft mouse model; type: in vivo, nude mice; conditions: 15 mg per kg in food
Description: as §3, §4

## CC(C)C(C)CNCc1ccc2c(c1)[nH]/c(=N\C(=O)c1ccc(C3=CN=NC3)s1)n2CC(C)(C)O (stereo not shown) [BI 10N]
56 protein kinases
  selectivity for ITK over other protein kinases: at least 1000 fold
[1]
  increase in doubling time: about 50%
[2]
  effect on doubling time: did not increase their doubling time
[3]
  increase in doubling time: about 50%
[4]
  tumor growth: significantly slowed
[5]
  tumor growth: significantly slowed
[6]
  tumor growth: did not slow
